Active and inactive are the calls of the source. No cut-off for these calls is given here.
Experiments:
[1] = target: T1, Peroxisome proliferator-activated receptor gamma (Homo sapiens, UniProt P37231); test: Transactivation of Gal4-fused human PPARgamma transfected in COS7 cells co-transfected with pGAL5-TK-pGL3 and pRennilla-CMV incubated for 39 hrs by dual luciferase reporter assay; type: cell-based
T1 sequence (P37231 whole entry): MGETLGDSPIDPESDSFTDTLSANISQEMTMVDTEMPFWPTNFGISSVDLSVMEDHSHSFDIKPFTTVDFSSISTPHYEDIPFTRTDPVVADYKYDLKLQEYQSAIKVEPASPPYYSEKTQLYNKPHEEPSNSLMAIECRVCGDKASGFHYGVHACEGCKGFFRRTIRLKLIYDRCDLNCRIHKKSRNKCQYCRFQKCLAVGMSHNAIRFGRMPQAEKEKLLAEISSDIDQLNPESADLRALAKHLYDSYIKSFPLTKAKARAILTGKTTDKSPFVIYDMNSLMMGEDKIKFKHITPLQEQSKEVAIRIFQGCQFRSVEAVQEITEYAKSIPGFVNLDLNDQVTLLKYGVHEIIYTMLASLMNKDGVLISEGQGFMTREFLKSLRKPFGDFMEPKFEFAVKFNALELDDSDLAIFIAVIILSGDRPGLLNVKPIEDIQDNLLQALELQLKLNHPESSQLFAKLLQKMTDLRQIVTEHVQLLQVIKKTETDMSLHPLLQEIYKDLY

[2] = target: T2, Peroxisome proliferator-activated receptor gamma (Homo sapiens) (UniProt P37231); test: Transactivation of Gal4-fused human PPARgamma transfected in COS7 cells co-transfected with pGAL5-TK-pGL3 and pRennilla-CMV assessed as maximum intrinsic activation at 10 uM incubated for 39 hrs by dual luciferase reporter assay relative to pioglitazone; type: cell-based
T2 sequence (whole entry): T1 sequence (P37231 whole entry)

[3] = system: K562-IMA[r]; test: Induction of sensitization to imatinib-induced cytotoxicity in imatinib-resistant human K562-IMA[r] cells assessed as induction of cell death at 10 uM after 72 hrs in presence of 1 uM imatinib by propidium iodide/Triton-X100 dye based FACS analysis; type: functional
[4] = system: K562-IMA[r]; test: Cytotoxicity against imatinib-resistant human K562-IMA[r] cells assessed as cell death at 10 uM after 72 hrs by propidium iodide/Triton-X100 dye based FACS analysis
[5] = Cytotoxicity against human HS5 cells assessed as cell death at 10 uM after 72 hrs by propidium iodide/Triton-X100 dye based FACS analysis
[6] = system: K562; test: Cytotoxicity against human K562 cells assessed as cell death at 10 uM after 72 hrs by propidium iodide/Triton-X100 dye based FACS analysis; conditions: k562, 72 h
[7] = system: COS-7; test: Cytotoxicity against African green monkey COS7 cells assessed as effect on cell metabolic activity at 20 uM after 72 hrs by MTT assay; type: ADME, cell-based; conditions: chlorocebus aethiops, cos-7, 72 h
[8] = Solubility of compound in DMSO at 10 uM by microscopic analysis; type: physicochemical
[9] = Solubility of compound in water at >20 uM; type: physicochemical; conditions: buffer
[10] = target: T2, Peroxisome proliferator-activated receptor gamma (Homo sapiens); test: Transactivation of Gal4-fused human PPARgamma transfected in COS7 cells co-transfected with pGAL5-TK-pGL3 and pRennilla-CMV assessed as maximum intrinsic activation at 20 uM incubated for 39 hrs by dual luciferase reporter assay; type: cell-based
[11] = system: K562-IMA[r]; test: Cytotoxicity against imatinib-resistant human K562-IMA[r] cells assessed as induction of cell death at 10 uM after 72 hrs by propidium iodide/Triton-X100 dye based FACS analysis relative to control
[12] = system: K562-IMA[r]; test: Induction of sensitization to imatinib induced cytotoxicity in imatinib-resistant human K562-IMA[r] cells assessed as cell death up to 2.5 uM measured after 72 hrs in presence of 1 uM imatinib by propidium iodide/Triton-X100 dye based FACS analysis; type: functional
[13] = system: K562-IMA[r]; test: Induction of sensitization to imatinib-induced cytotoxicity in imatinib-resistant human K562-IMA[r] cells assessed as gain in cell death rate at 5 uM measured after 72 hrs in presence of 1 uM imatinib by propidium iodide/Triton-X100 dye based FACS analysis relative to imatinib-treated control; type: functional
[14] = system: K562-IMA[r]; test: Induction of sensitization to imatinib-induced cytotoxicity in imatinib-resistant human K562-IMA[r] cells assessed as induction of cell death at 10 uM after 72 hrs in presence of 1 uM imatinib by propidium iodide/Triton-X100 dye based FACS analysis (reference value: 15%); type: functional
[15] = system: K562-IMA[r]; test: Induction of sensitization to imatinib-induced cytotoxicity in imatinib-resistant human K562-IMA[r] cells assessed as induction of cell death measured after 72 hrs in presence of 1 uM imatinib by propidium iodide/Triton-X100 dye based FACS analysis; type: functional
[16] = target: T2, Peroxisome proliferator-activated receptor gamma (Homo sapiens); test: Transactivation of Gal4-fused human PPARgamma transfected in COS7 cells co-transfected with pGAL5-TK-pGL3 and pRennilla-CMV at 20 uM incubated for 39 hrs by dual luciferase reporter assay; type: cell-based

| Compound | EC50 [1] [µM] | Intrinsic activity [2] [%] | Activity [3] | Activity [4] | Activity [5] | Activity [6] | Activity [7] | solubility [8] | solubility [9] | Intrinsic activity [10] | Activity [11] [%] | Activity [12] | Activity [13] [%] | Activity [14] | Activity [15] | Activity [16] |
| --- | --- | --- | --- | --- | --- | --- | --- | --- | --- | --- | --- | --- | --- | --- | --- | --- |
| CCCc1nc2c(C)cccc2n1Cc1ccc(-c2ccccc2C(=O)O)cc1 | 11.1 | 54.3 | Active | Non-Toxic | Non-Toxic | Non-Toxic | Non-Toxic | Soluble | – | – | – | – | – | – | – | – |
| CCCc1nc2c(N)cccc2n1Cc1ccc(-c2ccccc2C(=O)O)cc1 | – | 15.7 | Active | Non-Toxic | Non-Toxic | Non-Toxic | Non-Toxic | Soluble | – | – | – | – | – | – | – | – |
| CCCc1nc2c(N)cccc2n1Cc1ccc(-c2ccccc2C(N)=O)cc1 | – | 25.1 | Active | Non-Toxic | Non-Toxic | Non-Toxic | Non-Toxic | Soluble | Insoluble | inactive | – | – | – | – | – | – |
| CCCc1nc2c(C(F)(F)F)cccc2n1Cc1ccc(-c2ccccc2C(=O)O)cc1 | 12.1 | 29.5 | Active | Non-Toxic | Non-Toxic | Non-Toxic | Non-Toxic | Soluble | – | – | – | – | – | – | – | – |
| CCCc1nc2c(C(F)(F)F)cccc2n1Cc1ccc(-c2ccccc2C(N)=O)cc1 | – | 19.5 | – | – | Non-Toxic | Non-Toxic | Non-Toxic | Soluble | Insoluble | inactive | < 20 | inactive | 7.1 | 62 - 78% | Dose-dependent effect | – |
| CCCc1nc2c(O)cccc2n1Cc1ccc(-c2ccccc2C(N)=O)cc1 | – | 20.5 | Active | Non-Toxic | Non-Toxic | Non-Toxic | Non-Toxic | Soluble | Insoluble | inactive | – | – | – | – | – | – |
| CCCc1nc2c(Br)cccc2n1Cc1ccc(-c2ccccc2C(=O)O)cc1 | 8.25 | 44.9 | Active | Non-Toxic | Non-Toxic | Non-Toxic | Non-Toxic | Soluble | – | – | – | – | – | – | – | Active |
| CCCc1nc2c(F)cccc2n1Cc1ccc(-c2ccccc2C(N)=O)cc1 | – | 33.3 | – | – | Non-Toxic | Non-Toxic | Non-Toxic | Soluble | Insoluble | inactive | < 20 | inactive | 8.1 | 62 - 78% | Dose-dependent effect | – |
| CCCc1nc2c(OC)cccc2n1Cc1ccc(-c2ccccc2C(N)=O)cc1 | – | 13.3 | Active | Non-Toxic | Non-Toxic | Non-Toxic | Non-Toxic | Soluble | Insoluble | inactive | – | – | – | – | – | – |
| CCCc1nc2c(F)cccc2n1Cc1ccc(-c2ccccc2C(=O)O)cc1 | 8.66 | 44.2 | Active | Non-Toxic | Non-Toxic | Non-Toxic | Non-Toxic | Soluble | – | – | – | – | – | – | – | Active |
| CCCc1nc2ccccc2n1Cc1ccc(-c2ccccc2C(=O)O)cc1 | 7.22 | 58.5 | Active | Non-Toxic | Non-Toxic | Non-Toxic | Non-Toxic | Soluble | – | – | – | – | – | – | – | Active |
| CCCc1nc2c(O)cccc2n1Cc1ccc(-c2ccccc2C(=O)O)cc1 | – | 14.4 | Active | Non-Toxic | Non-Toxic | Non-Toxic | Non-Toxic | Soluble | – | – | – | – | – | – | – | – |
| CCCc1nc2c([N+](=O)[O-])cccc2n1Cc1ccc(-c2ccccc2C(N)=O)cc1 | – | 7.15 | Active | Non-Toxic | Non-Toxic | Non-Toxic | Non-Toxic | Soluble | Insoluble | inactive | – | – | – | – | – | – |
| CCCc1nc2c([N+](=O)[O-])cccc2n1Cc1ccc(-c2ccccc2C(=O)O)cc1 | – | 0.42 | Active | Non-Toxic | Non-Toxic | Non-Toxic | Non-Toxic | Soluble | – | – | – | – | – | – | – | – |
| CCCc1nc2c(Cl)cccc2n1Cc1ccc(-c2ccccc2C(N)=O)cc1 | – | 21.1 | – | – | Non-Toxic | Non-Toxic | Non-Toxic | Soluble | Insoluble | inactive | < 20 | inactive | 15.3 | 62 - 78% | Dose-dependent effect | – |
| CCCc1nc2c(Cl)cccc2n1Cc1ccc(-c2ccccc2C(=O)O)cc1 | 8.67 | 44 | Active | Non-Toxic | Non-Toxic | Non-Toxic | Non-Toxic | Soluble | – | – | – | – | – | – | – | Active |
| CCCc1nc2c(C)cc(-c3nc4ccccc4n3C)cc2n1Cc1ccc(-c2ccccc2C(=O)O)cc1 [TELMISARTAN] | 4.28 | 59.1 | Active | – | – | – | – | – | – | 78% | – | – | – | – | – | – |
| CCCc1nc2c(OC)cccc2n1Cc1ccc(-c2ccccc2C(=O)O)cc1 | – | 17.9 | Active | Non-Toxic | Non-Toxic | Non-Toxic | Non-Toxic | Soluble | – | – | – | – | – | – | – | – |
| CCCc1nc2c(C)cccc2n1Cc1ccc(-c2ccccc2C(N)=O)cc1 | – | 19.6 | – | – | Non-Toxic | Non-Toxic | Non-Toxic | Soluble | Insoluble | inactive | < 20 | inactive | 11.2 | 62 - 78% | Dose-dependent effect | – |

Reference: ChEMBL document CHEMBL4373734, “Overcoming imatinib resistance in chronic myelogenous leukemia cells using non-cytotoxic cell death modulators” (Eur J Med Chem, 2020)
